Results as given in US5157020A, “Synthetic senescent cell antigen” (Research Corporation Tech., Inc., priority 1990, dated 1992).

Target: T1, band 3 (Homo sapiens, UniProt P02730)
T1 construct: endogenous in cells; host or cells: stored red blood cells (middle-aged cells stored in Alsever's for 5 wks at 4 C)
T1 sequence (P02730 1-911): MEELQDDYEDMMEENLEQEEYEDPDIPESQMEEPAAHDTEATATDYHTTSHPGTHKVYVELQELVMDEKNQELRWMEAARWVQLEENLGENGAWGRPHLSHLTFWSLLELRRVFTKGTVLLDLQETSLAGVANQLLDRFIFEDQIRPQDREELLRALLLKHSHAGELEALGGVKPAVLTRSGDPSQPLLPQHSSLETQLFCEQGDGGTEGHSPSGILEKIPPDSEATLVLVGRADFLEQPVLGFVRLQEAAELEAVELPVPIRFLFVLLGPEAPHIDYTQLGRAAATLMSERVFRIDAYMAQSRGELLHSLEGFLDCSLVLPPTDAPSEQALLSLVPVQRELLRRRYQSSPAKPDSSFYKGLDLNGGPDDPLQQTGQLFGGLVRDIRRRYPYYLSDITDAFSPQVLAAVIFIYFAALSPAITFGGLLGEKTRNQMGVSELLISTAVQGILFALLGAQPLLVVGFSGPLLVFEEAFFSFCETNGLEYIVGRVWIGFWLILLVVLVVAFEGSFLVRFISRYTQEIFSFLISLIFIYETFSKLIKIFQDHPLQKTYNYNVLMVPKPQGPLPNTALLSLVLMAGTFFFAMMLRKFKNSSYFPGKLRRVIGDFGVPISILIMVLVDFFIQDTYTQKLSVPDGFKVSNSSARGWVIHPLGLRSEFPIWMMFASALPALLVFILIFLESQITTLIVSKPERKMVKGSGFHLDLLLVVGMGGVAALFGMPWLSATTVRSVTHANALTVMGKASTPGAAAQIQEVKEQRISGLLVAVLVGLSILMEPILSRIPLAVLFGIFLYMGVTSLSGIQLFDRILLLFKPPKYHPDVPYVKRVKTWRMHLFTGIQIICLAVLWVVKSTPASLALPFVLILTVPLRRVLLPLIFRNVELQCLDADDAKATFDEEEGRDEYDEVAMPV
Test: DIDS treatment of stored cells prior to incubation with senescent cell IgG
Assay type: cell-based
Conditions: stored cells incubated with 25 uM DIDS for 90 min at room temperature before senescent cell IgG
Procedure: Since DNP and DIDS modification of ANION 1 and COOH abolished inhibition of senescent cell IgG binding, we reasoned that DIDS binding to band 3 lysines in whole cells should interfere with senescent cell IgG binding. Stored cells were incubated with 25 uM DIDS for 90 min at room temperature prior to incubation with senescent cell IgG. […] Another possibility is that DIDS binding perturbs the configuration of the molecule so that the binding site is altered. However, since our studies indicate that the actual antigenic determinants reside on ANION 1 and COOH (Example 1), it is unlikely that a distant perturbation of the antigenic site by DIDS binding is responsible. It is more likely that a DIDS reactive lysine lies in or near enough to the antigenic site to cause steric hindrance.

O=S(=O)(O)c1cc(N=C=S)ccc1CCc1ccc(N=C=S)cc1S(=O)(=O)O [DIDS, diisothiocyano dihydrostilbene disulphonate]
inhibition of senescent cell IgG binding: 54±3%
